2 molecules from EP0596725A2, “Drug resistance-conferring protein, antibodies reactive therewith and utilities thereof” (ELI LILLY AND COMPANY, priority 1992, dated 1994) can be followed below.

For assay [1], the system named is HL60/S cells. The assay is described as follows: IC50 of cells treated with drug (drug sensitivity). Type of assay: cell-based. The following applies: Homo sapiens, HL-60, do not express P-glycoprotein, read-out: IC₅₀.
The subject of assay [2] is HL60/Adr cells. The assay is described as follows: IC50 of cells treated with drug (drug sensitivity). In kind it is cell-based. Conditions: Homo sapiens; HL60/Adr cells (resistant to doxorubicin); express P190, no P-glycoprotein; read-out: IC₅₀.

≈ marks a conversion by molar mass, not a printed value.

Consider `COc1cc([C@@H]2c3cc4c(cc3[C@@H](O[C@@H]3O[C@@H]5CO[C@@H](C)O[C@H]5[C@H](O)[C@H]3O)[C@H]3COC(=O)[C@H]23)OCO4)cc(OC)c1O` [Etoposide], for which the IC50 in assay [1] is 0.39 µg/mL (≈ 0.663 µM); in assay [2] it was greater than 10 µg/mL.
The matching figures for `COc1cccc2c1C(=O)c1c(O)c3c(c(O)c1C2=O)C[C@@](O)(C(=O)CO)C[C@@H]3O[C@H]1C[C@H](N)[C@H](O)[C@H](C)O1` [Adriamycin, Doxorubicin]: 0.011 µg/mL (≈ 0.0202 µM) and 2.2 µg/mL (≈ 4.05 µM).
